According to the supplement of paper PMC11061612:

How the values were obtained:
Carboplatin = compound: C1CC(C1)(C(=O)[O-])C(=O)[O-].N.N.[Pt+2] [Carboplatin]; settings: max 10 µM
Method in brief: (§1)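 Following 24 hours at 37°C and 5% CO2, cancer cell lines in 1536-well plates with 7.5 μl DMEM/F12 or RPMI and 10% FBS were dosed for 72 hours, final DMSO typically being 0.2%. CellTiter-Glo 2.0 luminescence, scaled between blank-well and DMSO-well means, gave the viability readout. Dose responses were fitted to a two-parameter logistic curve with a non-linear mixed effects model, and the single-agent IC50 was derived from this fit.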

AZD5363 = compound: C1CN(CCC1(C(=O)N[C@@H](CCO)C2=CC=C(C=C2)Cl)N)C3=NC=NC4=C3C=CN4 [AZD5363]; settings: max 10 µM
Method in brief: as §1

AZD1775 = compound: C=CCn1c(=O)c2cnc(Nc3ccc(N4CCN(C)CC4)cc3)nc2n1-c1cccc(C(C)(C)O)n1 [AZD1775]; settings: max 3 µM
Method in brief: as §1

Trametinib = compound: CC(=O)Nc1cccc(-n2c(=O)n(C3CC3)c(=O)c3c(Nc4ccc(I)cc4F)n(C)c(=O)c(C)c32)c1 [Trametinib]; settings: max 1 µM
Method in brief: as §1

Paclitaxel = compound: CC(=O)O[C@H]1C(=O)[C@@]2(C)[C@H]([C@H](OC(=O)c3ccccc3)[C@]3(O)C[C@H](OC(=O)[C@H](O)[C@@H](NC(=O)c4ccccc4)c4ccccc4)C(C)=C1C3(C)C)[C@]1(OC(C)=O)CO[C@@H]1C[C@@H]2O [Paclitaxel]; settings: max 3 µM
Method in brief: as §1

Palbociclib = compound: CC(=O)c1c(C)c2cnc(Nc3ccc(N4CCNCC4)cn3)nc2n(C2CCCC2)c1=O [Palbociclib]; settings: max 10 µM
Method in brief: as §1

AZD1390 = compound: CC(C)n1c(=O)n(C)c2cnc3cc(F)c(-c4ccc(OCCCN5CCCCC5)nc4)cc3c21 [AZD1390]; settings: max 0.3 µM
Method in brief: as §1

Venetoclax = compound: CC1(C)CCC(CN2CCN(c3ccc(C(=O)NS(=O)(=O)c4ccc(NCC5CCOCC5)c([N+](=O)[O-])c4)c(Oc4cnc5[nH]ccc5c4)c3)CC2)=C(c2ccc(Cl)cc2)C1 [Venetoclax]; settings: max 1 µM
Method in brief: as §1

Dasatinib = compound: CC1=C(C(=CC=C1)Cl)NC(=O)C2=CN=C(S2)NC3=CC(=NC(=N3)C)N4CCN(CC4)CCO [Dasatinib]; settings: max 2 µM
Method in brief: as §1

SG3199 = compound: CC1=CN2[C@@H](C1)C=NC3=CC(=C(C=C3C2=O)OC)OCCCCCOC4=C(C=C5C(=C4)N=C[C@@H]6CC(=CN6C5=O)C)OC [SG3199]; settings: max 0.001 µM
Method in brief: as §1

AZD2811 = compound: CCN(CCO)CCCOc1ccc2c(Nc3cc(CC(=O)Nc4cccc(F)c4)[nH]n3)ncnc2c1 [AZD2811]; settings: max 1 µM
Method in brief: as §1

SN-38 = compound: CCc1c2c(nc3ccc(O)cc13)-c1cc3c(c(=O)n1C2)COC(=O)[C@]3(O)CC [SN-38]; settings: max 0.3 µM
Method in brief: as §1

AZD0156 = compound: CN(C)CCCOc1ccc(-c2ccc3ncc4c(c3c2)n(C2CCOCC2)c(=O)n4C)cn1 [AZD0156]; settings: max 3 µM
Method in brief: as §1

AZD4320 = compound: CN(CC[C@H](CSC1=CC=CC=C1)NC2=C(C=C(C=C2)S(=O)(=O)NC(=O)C3=CC=C(C=C3)N4CCC(CC4)[C@H](C5=CC=CC=C5C6=CC=C(C=C6)Cl)O)S(=O)(=O)C(F)(F)F)CCO [AZD4320]; settings: max 1 µM
Method in brief: as §1

Alisertib = compound: COc1cc(Nc2ncc3c(n2)-c2ccc(Cl)cc2C(c2c(F)cccc2OC)=NC3)ccc1C(=O)O [Alisertib]; settings: max 10 µM
Method in brief: as §1

Etoposide = compound: COc1cc([C@@H]2c3cc4c(cc3[C@@H](O[C@@H]3O[C@@H]5CO[C@@H](C)O[C@H]5[C@H](O)[C@H]3O)[C@H]3COC(=O)[C@H]23)OCO4)cc(OC)c1O [Etoposide]; settings: max 10 µM
Method in brief: as §1

Gefitinib = compound: COc1cc2ncnc(Nc3ccc(F)c(Cl)c3)c2cc1OCCCN1CCOCC1 [Gefitinib]; settings: max 10 µM
Method in brief: as §1

Prexasertib = compound: COc1cccc(OCCCN)c1-c1cc(Nc2cnc(C#N)cn2)n[nH]1 [Prexasertib]; settings: max 1 µM
Method in brief: as §1

Doxorubicin = compound: COc1cccc2c1C(=O)c1c(O)c3c(c(O)c1C2=O)C[C@@](O)(C(=O)CO)C[C@@H]3O[C@H]1C[C@H](N)[C@H](O)[C@H](C)O1 [Doxorubicin]; settings: max 1 µM
Method in brief: as §1

AZD5153 = compound: COc1nnc2ccc(N3CCC(c4ccc(OCCN5CCN(C)C(=O)[C@H]5C)cc4)CC3)nn12 [AZD5153]; settings: max 1 µM
Method in brief: as §1

Lapatinib = compound: CS(=O)(=O)CCNCc1ccc(-c2ccc3ncnc(Nc4ccc(OCc5cccc(F)c5)c(Cl)c4)c3c2)o1 [Lapatinib]; settings: max 10 µM
Method in brief: as §1

AZD8186 = compound: C[C@@H](Nc1cc(F)cc(F)c1)c1cc(C(=O)N(C)C)cc2c(=O)cc(N3CCOCC3)oc12 [AZD8186]; settings: max 10 µM
Method in brief: as §1

Crizotinib = compound: C[C@@H](Oc1cc(-c2cnn(C3CCNCC3)c2)cnc1N)c1c(Cl)ccc(F)c1Cl [Crizotinib]; settings: max 10 µM
Method in brief: as §1

Savolitinib = compound: C[C@@H](c1ccc2nccn2c1)n1nnc2ncc(-c3cnn(C)c3)nc21 [Savolitinib]; settings: max 1 µM
Method in brief: as §1

AZD6738 = compound: C[C@@H]1COCCN1C2=NC(=NC(=C2)C3(CC3)[S@](=N)(=O)C)C4=C5C=CNC5=NC=C4 [AZD6738]; settings: max 10 µM
Method in brief: as §1

AZD5991 = compound: Cc1c2c(nn1C)CSCc1cc(n(C)n1)CSc1cc(c3ccccc3c1)OCCCc1c(C(=O)O)n(C)c3c-2c(Cl)ccc13 [AZD5991]; settings: max 1 µM
Method in brief: as §1

AZD7648 = compound: Cc1cc2ncnn2cc1Nc1ncc2c(n1)n(C1CCOCC1)c(=O)n2C [AZD7648]; settings: max 10 µM
Method in brief: as §1

Taselisib = compound: Cc1nc(-c2cn3c(n2)-c2ccc(-c4cnn(C(C)(C)C(N)=O)c4)cc2OCC3)n(C(C)C)n1 [Taselisib]; settings: max 10 µM
Method in brief: as §1

Selumetinib = compound: Cn1cnc2c(F)c(Nc3ccc(Br)cc3Cl)c(C(=O)NOCCO)cc21 [Selumetinib]; settings: max 10 µM
Method in brief: as §1

SRA737 = compound: N#Cc1cnc(Nc2cc(NC[C@H]3CNCCO3)c(C(F)(F)F)cn2)cn1 [SRA737]; settings: max 10 µM
Method in brief: as §1

MK-2206 = compound: NC1(c2ccc(-c3nc4ccn5c(=O)[nH]nc5c4cc3-c3ccccc3)cc2)CCC1 [MK-2206]; settings: max 10 µM
Method in brief: as §1

Gemcitabine = compound: Nc1ccn([C@@H]2O[C@H](CO)[C@@H](O)C2(F)F)c(=O)n1 [Gemcitabine]; settings: max 0.3 µM
Method in brief: as §1

[1] = compound: O=C(Nc1ccc2[nH]nc(-c3ccncc3)c2c1)[C@@H]1CCN(CC(=O)N2CCN(c3ccc(-c4ncccn4)cc3)CC2)C1; settings: max 5 µM
Method in brief: as §1

Olaparib = compound: O=C(c1cc(Cc2n[nH]c(=O)c3ccccc23)ccc1F)N1CCN(C(=O)C2CC2)CC1 [Olaparib]; settings: max 10 µM
Method in brief: as §1

5-Fluorouracil = compound: O=c1[nH]cc(F)c(=O)[nH]1 [5-Fluorouracil]; settings: max 20 µM
Method in brief: as §1

Cell Line: CCK-81 (Colorectal Carcinoma)
- IC50, cell viability 72 h (Carboplatin): > 10000 nM
- IC50, cell viability 72 h (AZD5363): > 10000 nM
- IC50, cell viability 72 h (AZD1775): 661 nM
- IC50, cell viability 72 h (Trametinib): 208 nM
- IC50, cell viability 72 h (Paclitaxel): 101 nM
- IC50, cell viability 72 h (Palbociclib): > 10000 nM
- IC50, cell viability 72 h (AZD1390): > 300 nM
- IC50, cell viability 72 h (Venetoclax): > 1000 nM
- IC50, cell viability 72 h (Dasatinib): > 2000 nM
- IC50, cell viability 72 h (SG3199): > 1 nM
- IC50, cell viability 72 h (AZD2811): > 1000 nM
- IC50, cell viability 72 h (SN-38): 76.7 nM
- IC50, cell viability 72 h (AZD0156): > 3000 nM
- IC50, cell viability 72 h (AZD4320): > 1000 nM
- IC50, cell viability 72 h (Alisertib): > 10000 nM
- IC50, cell viability 72 h (Etoposide): > 10000 nM
- IC50, cell viability 72 h (Gefitinib): 997 nM
- IC50, cell viability 72 h (Prexasertib): 10.7 nM
- IC50, cell viability 72 h (Doxorubicin): > 1000 nM
- IC50, cell viability 72 h (AZD5153): 160 nM
- IC50, cell viability 72 h (Lapatinib): 484 nM
- IC50, cell viability 72 h (AZD8186): > 10000 nM
- IC50, cell viability 72 h (Crizotinib): 8320 nM
- IC50, cell viability 72 h (Savolitinib): > 1000 nM
- IC50, cell viability 72 h (AZD6738): 1570 nM
- IC50, cell viability 72 h (AZD5991): 634 nM
- IC50, cell viability 72 h (AZD7648): > 10000 nM
- IC50, cell viability 72 h (Taselisib): 1180 nM
- IC50, cell viability 72 h (Selumetinib): 9240 nM
- IC50, cell viability 72 h (SRA737): 876 nM
- IC50, cell viability 72 h (MK-2206): > 10000 nM
- IC50, cell viability 72 h (Gemcitabine): 50.3 nM
- IC50, cell viability 72 h [1]: 4810 nM
- IC50, cell viability 72 h (Olaparib): > 10000 nM
- IC50, cell viability 72 h (5-Fluorouracil): 7320 nM

Cell Line: ONS-76 (Other Solid Carcinomas)
- IC50, cell viability 72 h (Carboplatin): > 10000 nM
- IC50, cell viability 72 h (AZD5363): > 10000 nM
- IC50, cell viability 72 h (AZD1775): 1190 nM
- IC50, cell viability 72 h (Trametinib): 23.9 nM
- IC50, cell viability 72 h (Paclitaxel): 66.1 nM
- IC50, cell viability 72 h (Palbociclib): > 10000 nM
- IC50, cell viability 72 h (AZD1390): > 300 nM
- IC50, cell viability 72 h (Venetoclax): > 1000 nM
- IC50, cell viability 72 h (Dasatinib): > 2000 nM
- IC50, cell viability 72 h (SG3199): > 1 nM
- IC50, cell viability 72 h (AZD2811): > 1000 nM
- IC50, cell viability 72 h (SN-38): 43.7 nM
- IC50, cell viability 72 h (AZD0156): > 3000 nM
- IC50, cell viability 72 h (AZD4320): > 1000 nM
- IC50, cell viability 72 h (Alisertib): > 10000 nM
- IC50, cell viability 72 h (Etoposide): 8960 nM
- IC50, cell viability 72 h (Gefitinib): > 10000 nM
- IC50, cell viability 72 h (Prexasertib): 8.7 nM
- IC50, cell viability 72 h (Doxorubicin): 252 nM
- IC50, cell viability 72 h (AZD5153): 940 nM
- IC50, cell viability 72 h (Lapatinib): > 10000 nM
- IC50, cell viability 72 h (AZD8186): > 10000 nM
- IC50, cell viability 72 h (Crizotinib): > 10000 nM
- IC50, cell viability 72 h (Savolitinib): > 1000 nM
- IC50, cell viability 72 h (AZD6738): 1000 nM
- IC50, cell viability 72 h (AZD5991): > 1000 nM
- IC50, cell viability 72 h (AZD7648): > 10000 nM
- IC50, cell viability 72 h (Taselisib): > 10000 nM
- IC50, cell viability 72 h (Selumetinib): 1910 nM
- IC50, cell viability 72 h (SRA737): 1690 nM
- IC50, cell viability 72 h (MK-2206): > 10000 nM
- IC50, cell viability 72 h (Gemcitabine): 257 nM
- IC50, cell viability 72 h [1]: 270 nM
- IC50, cell viability 72 h (Olaparib): > 10000 nM
- IC50, cell viability 72 h (5-Fluorouracil): > 20000 nM
